Test results taken from patent publication US8575310B2, “Bioactive pentapeptides from rice bran and use thereof” (Board of Trustees of the University of Arkansas, priority 2009, dated 2013).
No end group written: not given here.

Assays:
Assay type in all cases: cell-based, human
[1] = system: Caco-2 cells; test: Trypan blue dye exclusion assay, viability of Caco-2 cells; details: 200 μM concentration
Procedure: Human Cancer Cell Cultures. Human colon epithelial cancer cell line Caco-2, liver epithelial cancer cell line HepG2 and breast epithelial cancer cell line HTB-26 were cultured separately at 37° C. in Dulbecco's Modified Eagles Medium (DMEM) in the presence of 10% fetal bovine serum, supplemented with 1 mM L-glutamine, sodium pyruvate, 1 mM sodium bicarbonate, and 50 μg/mL gentamycin. Human lung epithelial cancer cell line NCI-H1299 was cultured in RPMI-1640 medium supplemented with 10% fetal bovine serum. After cell growth reached 70%, cell viability was monitored by employing the trypan blue dye exclusion assay after peptide treatments. Briefly, the monolayer was allowed to grow for 2-3 days at 37° C. on 24-well flat-bottom plates. One hundred microliters (100 μL) of rice bran peptide fractions at 1 mg/mL protein content was added to the cultures. For positive control genistein at 200 and 400 μM in saline and for negative control saline alone was used. After 24-48 h of treatments, the medium was removed, and the cells were briefly dissociated with 0.1% trypsin and 0.53 mM ethylenediaminetetraacetic acid (EDTA) solution. Following this, 0.5% trypan blue dye mixed in growth medium was added to each well. Samples were then aspirated from each well and loaded onto chambers in a hemocytometer cell, and cell counts were taken. […]

[2] = system: colon cancer cells; details: pH 7
Procedure: An RSM design with a 3-factorial model was designed to use combinations of pH, RH (relative humidity), temperature and degree of glycosylation to evaluate enhanced anti-cancer activity of a modified (glycosylated) peptide. Peptide-glucose mixture samples were prepared at the following conditions/combinations: RH 55, 65, & 75 at pHs 6, 7 and 8 maintained at 40, 50 and 60° C. temperatures and tested for growth inhibition activity on colon cancer cells. The degree of glycosylation increased with increasing time at varying RH, and achieved a maximum of ˜20% degree of glycosylation.
Optimization for Degree of Glycosylation: The bioactive pentapeptide (0.02 g) (SEQ ID NO: 1) and D-glucose (0.002 g) were dissolved in water to give a 10% (w/v) protein solution. The solution pH was adjusted to varying pHs based on RSM design (6, 7, 8) and stirred for 10 min, and freeze-dried. The freeze-dried mixture was placed on an aluminum plate, and incubated at 50° C. at varying relative humidity ([…], 65%, 75%) based on the RSM design illustrated below in Table 3.

[3] = system: amyloid-induced neuroblastoma cells (IMR-32); test: Protection against amyloid beta (1-42) toxicity in neuroblastoma cells, MTS assay; details: compared to amyloid-induced cells not treated with peptides
Procedure: Evaluation of Anti-Alzheimer's Disease Activity: Human neuroblastoma cells (IMR-32-ATCC Number CCL-127) was used as model system to evaluate the protective role of rice bran peptide fractions against amyloid beta (1-42) (Cat. No. PP69, EMD Chemicals, Inc., San Diego, Calif.) dependent toxicity. Human neuroblastoma cells were grown in the presence of beta amyloid peptide with and without bran peptide fractions at different levels. Cell survival to the amyloid-induced neuroblastoma cells upon bran peptide treatments was examined by the MTS [(3-(4,5-dimethylthiazole-2-yl)-5-(3-carboxymethoxyphenyl)-2-(4-sulfophenyl)-2H-tetrazolium, inner salt] assay, and compared to the cytotoxicity observed with amyloid-induced neuroblastoma cells.
Neuroblastoma cells were treated with amyloid peptide followed by treatment with rice bran peptide fractions. Cytotoxicity to the amyloid-induced neuroblastoma cells was examined by the MTS assay.

Compound | viable cells on Caco-2 cell line [1] [viable cells/mL] | cancer cell activity inhibition [2] [%] | reduction in cytotoxicity of amyloid-induced neuroblastoma cells [3] [%]
O=c1c(-c2ccc(O)cc2)coc2cc(O)cc(O)c12 [Genistein] | 20000 |  | 
EQRPR [bioactive pentapeptide, Glu-Gln-Arg-Pro-Arg] |  | ~80 | ~45
